From paper PMC10239048, “Synthesis and antioxidant, antimicrobial, and antiviral activity of some pyrazole-based heterocycles using a 2(3H)-furanone derivative” (Journal of the Iranian Chemical Society, 2023)
≈ marks a conversion by molar mass, not a printed value.

Legend:
[1] = Total antioxidant capacity (TAC), phosphomolybdenum method; settings: for Total antioxidant capacity: 500 µg/ml in methanol, 95 °C 90 min, 695 nm, means ± S.D., n = 3
[2] = system: avian influenza HPAI-H5N1 (AIV); design: species or system avian influenza virus HPAI-H5N1; settings: in vivo
Haemophilus (Gram –ve) [3] = experiment: MIC measurement by serial dilution, Haemophilus; type: cell-based; settings: read-out: MIC Haemophilus (Gram –ve)
Staphylococcus aureus [4] = experiment: Agar/disk diffusion inhibition zone, Staphylococcus aureus; type: cell-based; settings: diffusion method
Candida albicans = experiment: Agar diffusion antifungal activity, Candida albicans; type: cell-based; settings: diffusion method
[5] = system: embryonated chicken SPF eggs; settings: in vivo
Staphylococcus aureus [6] = experiment: MIC measurement by serial dilution, Staphylococcus aureus; type: cell-based; settings: 37 °C, 24–72 h, read-out: MIC Staph (Gram + ve)
SPF chicks = experiment: Immune-boosting properties in vaccinated SPF chicks (humeral response); type: in vivo, chicken; settings: for Humeral response of vaccinated groups which received each tested compound separately: SPF chicks, vaccine-only group 7 log2; for Immune-boosting properties (in words): antibody titer in serum of vaccinated chicks
[7] = system: avian influenza HPAI-H5N1 (AIV); design: species or system avian influenza virus HPAI-H5N1; settings: in vivo; remark: listed apart in the source
Haemophilus (Gram –ve) [8] = experiment: Agar/disk diffusion inhibition zone, Haemophilus; type: cell-based; settings: diffusion method

| Structure (SMILES) | melting point | Antioxidant activity (in words) [1] | Total antioxidant capacity [1] | Antiviral activity against avian influenza virus (in words) [2] | MIC (Haemophilus (Gram –ve) [3]) | Inhibition diameter Staph (Gram + ve) (Staphylococcus aureus [4]) | Candida albicans (diameter of inhibition zone) (Candida albicans) | CC50 [5] | MIC (Staphylococcus aureus [6]) | Humeral response of vaccinated groups which received each tested compound separately (SPF chicks) | TI [7] | Inhibition diameter Haemophilus (Gram –ve) (Haemophilus (Gram –ve) [8]) | Virus titer with compound [2] | Immune-boosting properties (in words) (SPF chicks) |
| --- | --- | --- | --- | --- | --- | --- | --- | --- | --- | --- | --- | --- | --- | --- |
| CC(=O)NN1C(=O)C(=Cc2c(C)nn(-c3ccccc3)c2Cl)C=C1c1ccc(C)cc1 [Compound 12, N-(3-((5-Chloro-3-methyl-1-phenyl-1H-pyrazol-4-yl)methylene)-2-oxo-5-(p-tolyl)-2,3-dihydro-1H-pyrrol-1-yl)acetamide] | 114 to 116 °C | Moderate antioxidant activity | 163.0 ± 1.75 mg AAE/g dry compound | – | – | – | – | – | – | – | – | – | – | – |
| Cc1ccc(C2=CC(=Cc3c(C)nn(-c4ccccc4)c3Cl)C(=O)N2NC(=O)c2ccccc2)cc1 [Compound 14, N-(3-((5-Chloro-3-methyl-1-phenyl-1H-pyrazol-4-yl)methylene)-2-oxo-5-(p-tolyl)-2,3-dihydro-1H-pyrrol-1-yl)benzamide] | – | – | 261.0 ± 2.48 mg AAE/g dry compound | little antiviral activity | 16 µg/mL (≈ 32.3 µM) | 7 mm | 7 mm | 500 > µl/ egg | 16 µg/mL | 7.2 log2 | 55.5 | 8 mm | – | – |
| Cc1ccc(C(=O)CC(=Cc2c(C)nn(-c3ccccc3)c2Cl)C(=O)NCC(C)C)cc1 [Compound 6, 2-((5-Chloro-3-methyl-1-phenyl-1H-pyrazol-4-yl)methylene)-N-isobutyl-4-oxo-4-(p-tolyl)butanamide] | – | – | 248.67 ± 4.11 mg AAE/g dry compound | remarked antiviral activity | 5 µg/mL (≈ 11.1 µM) | 22 mm | 20 mm | 500 > µl/ egg | 4 µg/mL | 7.4 log2 | 83.3 | 25 mm | 10^1 | special immune-boosting properties |
| Cc1ccc(C(=O)CC(=Cc2c(C)nn(-c3ccccc3)c2Cl)C(=O)NN=Cc2cn(-c3ccccc3)nc2-c2ccccc2)cc1 [Compound 16, 2-((5-Chloro-3-methyl-1-phenyl-1H-pyrazol-4-yl)methylene)-N'-((1,3-diphenyl-1H-pyrazol-4-yl)methylene)-4-oxo-4-(p-tolyl)butanehydrazide] | – | – | 205.82 ± 2.45 mg AAE/g dry compound | remarked antiviral activity | 6 µg/mL (≈ 9.39 µM) | 22 mm | 23 mm | 500 > µl/ egg | 5 µg/mL | 7.2 log2 | 83.3 | 23 mm | 10^1 | special immune-boosting properties |
| Cc1ccc(C2=CC(=Cc3c(C)nn(-c4ccccc4)c3Cl)C(=O)N2Cc2ccccc2)cc1 | 152 to 154 °C | – | – | – | – | – | – | – | – | – | – | – | – | – |
| Cc1ccc(C(=O)CC(=Cc2c(C)nn(-c3ccccc3)c2Cl)C(=O)NNc2ccccc2)cc1 [Compound 10, 2-((5-Chloro-3-methyl-1-phenyl-1H-pyrazol-4-yl)methylene)-4-oxo-N'-phenyl-4-(p-tolyl)butanehydrazide] | – | highest potent levels of activity | 336.0 ± 3.46 mg AAE/g dry compound | little antiviral activity | 17 µg/mL (≈ 35.1 µM) | 7 mm | 7 mm | 500 > µl/ egg | 13 µg/mL | 6.9 log2 | 55.5 | 6 mm | – | – |
| CC(=O)N(C(C)=O)N1C(=O)C(=Cc2c(C)nn(-c3ccccc3)c2Cl)C=C1c1ccc(C)cc1 [Compound 13, N-Acetyl-N-(3-((5-chloro-3-methyl-1-phenyl-1H-pyrazol-4-yl)methylene)-2-oxo-5-(p-tolyl)-2,3-dihydro-1H-pyrrol-1-yl)acetamide] | – | Moderate antioxidant activity | 190.0 ± 1.67 mg AAE/g dry compound | less antiviral activity | 10 µg/mL (≈ 21.1 µM) | 14 mm | 14 mm | 500 > µl/ egg | 9 µg/mL | 6.9 log2 | 71.42 | 12 mm | – | – |
| Cc1ccc(C(=O)CC(=Cc2c(C)nn(-c3ccccc3)c2Cl)C(=O)NCc2ccccc2)cc1 [Compound 5, N-Benzyl-2-((5-chloro-3-methyl-1-phenyl-1H-pyrazol-4-yl)methylene)-4-oxo-4-(p-tolyl)butanamide] | – | – | 221.14 ± 4.63 mg AAE/g dry compound | remarked antiviral activity | 3 µg/mL (≈ 6.2 µM) | 24 mm | 22 mm | 300 > µl/ egg | 3 µg/mL | 7.4 log2 | 96.77 | 23 mm | 10^1 | special immune-boosting properties |
| Cc1ccc(-c2cc(Cc3c(C)nn(-c4ccccc4)c3Cl)c(=O)[nH]n2)cc1 [Compound 9, 4-((5-chloro-3-methyl-1-phenyl-1H-pyrazol-4-yl)methyl)-6-(p-tolyl)pyridazin-3(2H)-one] | – | highest potent levels of activity | 374.0 ± 2.08 mg AAE/g dry compound | little antiviral activity | 20 µg/mL (≈ 51.2 µM) | 2 mm | 2 mm | 400 > µl/ egg | 19 µg/mL | 6log2 | 50 | 1 mm | – | less immune-boosting properties |
